Values quoted from earlier work, collected in patent publication US6555140B1, “Composition and method for enhancing male fertility and libido” (priority 1999, dated 2003).

Legend:
[1] = in water
[2] = for share of the ingested amount metabolically degraded: transported from inside the intestine into the blood stream

Solubility [1]	share of what is ingested metabolically available [2]	share of the ingested amount metabolically degraded [2]	Compound
Soluble in water up to 50 mg/ml	about 70%	about 30%	NCCCCNCCCN [Spermidine Free Base, Spermidine]
Soluble in water up to 50 mg/ml	about 70%	about 30%	NCCCNCCCCNCCCN [Spermine Free Base, Spermine]
